For assay [1], the target named is T1, Gamma-aminobutyric acid receptor subunit alpha-1 (Homo sapiens) (UniProt P14867).
T1 sequence (whole entry): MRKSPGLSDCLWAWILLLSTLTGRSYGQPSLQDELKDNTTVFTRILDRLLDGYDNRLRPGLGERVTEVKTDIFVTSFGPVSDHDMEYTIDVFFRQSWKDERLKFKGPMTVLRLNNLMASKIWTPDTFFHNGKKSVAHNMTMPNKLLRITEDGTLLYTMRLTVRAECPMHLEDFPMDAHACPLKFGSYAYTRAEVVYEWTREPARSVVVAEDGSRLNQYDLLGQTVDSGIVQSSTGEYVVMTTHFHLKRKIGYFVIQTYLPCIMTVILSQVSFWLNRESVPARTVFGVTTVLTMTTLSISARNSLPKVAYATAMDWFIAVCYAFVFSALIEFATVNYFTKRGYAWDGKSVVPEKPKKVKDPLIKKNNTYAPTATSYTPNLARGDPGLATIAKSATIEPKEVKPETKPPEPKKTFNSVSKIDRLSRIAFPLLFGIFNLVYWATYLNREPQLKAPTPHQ
Kind of assay: Selectivity interaction (GPCR panel (PDSP screen)) EUB0001079a GABRA1. The conditions noted are these: at 10 µM.

In assay [2] the target is Interleukin-1 receptor-associated kinase 1 (Homo sapiens) (UniProt P51617). Description: Selectivity interaction (KinomeScan (DiscoverX)) EUB0001619a IRAK1. The conditions noted are these: at 1 µM.
The target in assay [3] is Ribosomal protein S6 kinase beta-1 (Homo sapiens, UniProt P23443). Kind of assay: Selectivity interaction (ActivX KiNativ screen (kinase selectivity in THP-1 cell lysates)) EUB0000639a RPS6KB1. Format: subcellular. The conditions noted are these: lysate, at 1 µM.
In assay [4] the target is Phosphatidylinositol 4-phosphate 5-kinase type-1 alpha (Homo sapiens) (UniProt Q99755). Kind of assay: Selectivity interaction (KinomeScan (DiscoverX)) EUB0001049a PIP5K1A. The conditions noted are these: at 1 µM.
Assay [5] concerns the target T2, 3-phosphoinositide-dependent protein kinase 1 (Homo sapiens) (UniProt O15530).
T2 sequence (whole entry): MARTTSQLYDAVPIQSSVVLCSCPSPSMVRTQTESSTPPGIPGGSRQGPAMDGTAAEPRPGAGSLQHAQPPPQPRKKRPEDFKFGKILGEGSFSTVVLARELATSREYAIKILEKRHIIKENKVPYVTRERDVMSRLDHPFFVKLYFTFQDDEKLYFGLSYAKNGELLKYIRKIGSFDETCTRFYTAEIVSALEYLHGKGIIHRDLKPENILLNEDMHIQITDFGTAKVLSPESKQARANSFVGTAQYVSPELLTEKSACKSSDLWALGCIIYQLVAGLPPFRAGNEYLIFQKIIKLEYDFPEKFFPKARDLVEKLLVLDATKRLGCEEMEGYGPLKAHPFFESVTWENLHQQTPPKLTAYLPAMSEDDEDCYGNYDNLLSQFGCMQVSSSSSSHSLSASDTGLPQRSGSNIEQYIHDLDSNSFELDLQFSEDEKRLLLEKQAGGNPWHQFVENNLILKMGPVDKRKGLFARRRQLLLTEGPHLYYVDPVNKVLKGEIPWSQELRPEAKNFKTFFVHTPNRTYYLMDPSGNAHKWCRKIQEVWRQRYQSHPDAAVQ
Description: Selectivity interaction (KinomeScan (DiscoverX)) EUB0001049a PDPK1. Conditions: at 1 µM.

Assay [6] addresses T3, SNF-related serine/threonine-protein kinase (Homo sapiens) (UniProt Q9NRH2).
T3 sequence (whole entry): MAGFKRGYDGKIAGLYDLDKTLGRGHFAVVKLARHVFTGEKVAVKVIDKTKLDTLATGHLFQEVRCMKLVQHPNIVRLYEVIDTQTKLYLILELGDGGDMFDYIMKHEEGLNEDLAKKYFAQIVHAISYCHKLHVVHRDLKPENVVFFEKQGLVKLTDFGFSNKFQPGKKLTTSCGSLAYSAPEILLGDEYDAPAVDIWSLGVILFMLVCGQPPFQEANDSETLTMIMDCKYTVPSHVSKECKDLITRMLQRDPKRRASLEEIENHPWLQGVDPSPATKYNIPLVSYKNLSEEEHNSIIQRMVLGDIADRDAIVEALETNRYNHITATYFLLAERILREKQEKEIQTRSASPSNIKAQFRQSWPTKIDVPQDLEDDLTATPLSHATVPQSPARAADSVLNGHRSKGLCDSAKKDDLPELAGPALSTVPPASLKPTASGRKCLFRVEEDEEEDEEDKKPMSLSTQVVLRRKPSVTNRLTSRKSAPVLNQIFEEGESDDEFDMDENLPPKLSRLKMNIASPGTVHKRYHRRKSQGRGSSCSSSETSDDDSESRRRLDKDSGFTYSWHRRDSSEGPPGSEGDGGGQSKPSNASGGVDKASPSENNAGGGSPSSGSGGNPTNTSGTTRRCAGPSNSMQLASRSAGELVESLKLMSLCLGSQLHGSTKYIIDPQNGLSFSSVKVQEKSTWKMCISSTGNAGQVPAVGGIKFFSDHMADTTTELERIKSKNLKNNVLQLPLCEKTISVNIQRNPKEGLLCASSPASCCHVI
Description: Selectivity interaction (KinomeScan (DiscoverX)) EUB0000695a SNRK. The conditions noted are these: at 100 nM.

For assay [7], the target named is T4, NUAK family SNF1-like kinase 1 (Homo sapiens) (UniProt O60285).
T4 sequence (whole entry): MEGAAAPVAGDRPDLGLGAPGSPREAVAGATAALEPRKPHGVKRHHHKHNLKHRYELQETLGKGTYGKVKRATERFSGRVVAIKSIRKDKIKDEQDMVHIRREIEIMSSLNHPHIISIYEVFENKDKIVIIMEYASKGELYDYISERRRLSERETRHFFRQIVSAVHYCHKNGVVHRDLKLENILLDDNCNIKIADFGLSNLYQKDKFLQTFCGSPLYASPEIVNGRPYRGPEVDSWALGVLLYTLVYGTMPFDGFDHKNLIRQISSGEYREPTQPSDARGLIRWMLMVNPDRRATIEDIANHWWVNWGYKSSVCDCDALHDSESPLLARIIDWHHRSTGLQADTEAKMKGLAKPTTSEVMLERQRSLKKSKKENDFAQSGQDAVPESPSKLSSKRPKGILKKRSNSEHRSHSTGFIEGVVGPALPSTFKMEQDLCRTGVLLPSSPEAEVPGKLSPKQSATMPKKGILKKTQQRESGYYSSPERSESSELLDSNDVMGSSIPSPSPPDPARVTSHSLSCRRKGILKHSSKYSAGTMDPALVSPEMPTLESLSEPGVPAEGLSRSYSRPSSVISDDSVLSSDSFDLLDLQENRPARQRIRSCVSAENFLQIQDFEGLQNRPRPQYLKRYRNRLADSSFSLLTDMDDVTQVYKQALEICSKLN
Description: Selectivity interaction (KinomeScan (DiscoverX)) EUB0000092b NUAK1. The conditions noted are these: at 10 µM.

Sequence of Ribosomal protein S6 kinase beta-1 (P23443 whole entry, looked up): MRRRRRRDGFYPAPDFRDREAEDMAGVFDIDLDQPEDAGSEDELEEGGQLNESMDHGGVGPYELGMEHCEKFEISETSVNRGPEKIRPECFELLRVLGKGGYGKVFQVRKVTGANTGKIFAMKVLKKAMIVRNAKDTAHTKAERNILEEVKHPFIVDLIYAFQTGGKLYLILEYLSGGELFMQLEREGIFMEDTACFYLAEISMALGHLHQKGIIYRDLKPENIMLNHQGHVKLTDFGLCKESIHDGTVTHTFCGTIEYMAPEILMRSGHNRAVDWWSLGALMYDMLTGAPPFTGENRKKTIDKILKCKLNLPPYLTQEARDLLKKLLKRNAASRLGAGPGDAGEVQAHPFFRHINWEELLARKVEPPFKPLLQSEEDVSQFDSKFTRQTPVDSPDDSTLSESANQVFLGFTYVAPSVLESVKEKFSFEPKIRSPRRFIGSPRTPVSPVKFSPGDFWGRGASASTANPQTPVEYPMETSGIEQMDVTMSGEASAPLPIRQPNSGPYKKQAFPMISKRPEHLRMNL
Sequence of Phosphatidylinositol 4-phosphate 5-kinase type-1 alpha (Homo sapiens) (Q99755 whole entry): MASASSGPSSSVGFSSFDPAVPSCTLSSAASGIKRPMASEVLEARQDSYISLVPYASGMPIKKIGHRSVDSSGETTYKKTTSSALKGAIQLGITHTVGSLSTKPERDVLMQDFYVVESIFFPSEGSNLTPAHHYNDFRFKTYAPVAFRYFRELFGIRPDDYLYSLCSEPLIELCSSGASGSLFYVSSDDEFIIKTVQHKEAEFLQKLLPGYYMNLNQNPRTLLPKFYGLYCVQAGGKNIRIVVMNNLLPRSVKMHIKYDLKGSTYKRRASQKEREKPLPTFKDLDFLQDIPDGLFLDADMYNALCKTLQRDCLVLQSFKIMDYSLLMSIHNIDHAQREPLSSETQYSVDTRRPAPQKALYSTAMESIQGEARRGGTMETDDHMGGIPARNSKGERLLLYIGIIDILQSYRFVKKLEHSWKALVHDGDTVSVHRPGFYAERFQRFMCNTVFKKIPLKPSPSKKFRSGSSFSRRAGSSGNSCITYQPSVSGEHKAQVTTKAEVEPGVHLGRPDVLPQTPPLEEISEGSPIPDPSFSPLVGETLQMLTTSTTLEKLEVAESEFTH
Sequence of Interleukin-1 receptor-associated kinase 1 (Homo sapiens) (P51617 whole entry, looked up): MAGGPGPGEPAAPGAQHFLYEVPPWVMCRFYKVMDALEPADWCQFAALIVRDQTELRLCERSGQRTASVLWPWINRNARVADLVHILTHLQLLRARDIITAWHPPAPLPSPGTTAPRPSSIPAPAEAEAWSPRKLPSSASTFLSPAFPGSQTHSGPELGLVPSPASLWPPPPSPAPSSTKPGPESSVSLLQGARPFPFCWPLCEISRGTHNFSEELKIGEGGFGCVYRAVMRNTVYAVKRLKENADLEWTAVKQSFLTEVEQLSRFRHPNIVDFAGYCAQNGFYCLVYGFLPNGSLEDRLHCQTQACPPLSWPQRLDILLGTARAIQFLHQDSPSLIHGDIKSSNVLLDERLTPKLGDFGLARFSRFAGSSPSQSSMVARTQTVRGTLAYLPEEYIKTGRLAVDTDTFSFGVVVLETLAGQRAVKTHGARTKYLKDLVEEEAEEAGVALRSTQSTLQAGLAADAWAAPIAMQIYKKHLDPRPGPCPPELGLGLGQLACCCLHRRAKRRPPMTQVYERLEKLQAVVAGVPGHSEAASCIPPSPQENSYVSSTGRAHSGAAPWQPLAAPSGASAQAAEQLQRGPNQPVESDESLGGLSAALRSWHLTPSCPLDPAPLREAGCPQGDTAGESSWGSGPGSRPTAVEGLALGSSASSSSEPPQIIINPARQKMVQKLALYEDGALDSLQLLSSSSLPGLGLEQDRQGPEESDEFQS

For the compound `Nc1cnc(N2CCc3cc(S(=O)(=O)Nc4c(F)cc(Cl)cc4F)cc(N4CCCC4=O)c32)nc1` [TP-020n], the % of inhibition in assay [1] came out at 20.5%. `N#Cc1cccc(-c2c[nH]c3ncnc(N4CCOCC4)c23)c1` yielded a % of control in assay [2] of 23%. Turning to `CC[C@@H]1[C@H](F)C(=O)N[C@@H]1COc1nccc2cc(C(N)=O)c(OC)cc12` [ZIMLOVISERTIB], in assay [3], the % of inhibition was -5.5%.

As to `COc1cc(Nc2nc(C)cc(-c3cnn4nc(OC)ccc34)n2)cc(C(F)(F)F)c1`, the % of control in assay [4] came to 81%; in assay [5] it was 100%.

Regarding `Cc1cc(F)c(C(=O)Nc2cccc(-c3nncn3C(C)C)n2)cc1-n1cnc(C2CC2)c1`, the % of control in assay [6] came to 97%. On to `CCC(=O)N1CCN(c2ccc(-n3c(=O)ccc4cnc5ccc(-c6cnc7ccccc7c6)cc5c43)cc2C(F)(F)F)CC1`, for which, in assay [7], the % of control was 100%.
